Results taken from ChEMBL document CHEMBL1201862, “PubChem BioAssay data set” (2004).
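Cultured in 96-well plates, cells were exposed to test compound for 48 hours across five concentrations. GI50: concentration for 50% inhibition of growth.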 Active and inactive are the calls of the source. Cut-off read from the data, not from the text of the source: active = GI50 up to about 1.1 µM and inactive = higher.

Columns and labels:
Test in all cases: inhibition of tumour cell growth, NCI panel, 48 h
[1] = tested on: SF-539
[2] = tested on: BT-549
[3] = tested on: Malme-3M
[4] = tested on: T47D
[5] = tested on: SK-MEL-28
[6] = tested on: EKVX
[7] = tested on: SNB-19
[8] = tested on: SF-295
[9] = tested on: OVCAR-8
[10] = tested on: SN12C
[11] = tested on: NCI-H522
[12] = tested on: IGROV-1
[13] = tested on: MDA-MB-435
[14] = tested on: Hs-578T
[15] = tested on: UACC-62
[16] = tested on: MDA-MB-231
[17] = tested on: TK-10
[18] = tested on: M14
[19] = tested on: NCI-H460
[20] = tested on: HOP-92
[21] = tested on: U-251
[22] = tested on: HL-60
[23] = tested on: SW-620
[24] = tested on: COLO 205
[25] = tested on: UO-31
[26] = tested on: OVCAR-4
[27] = tested on: KM12
[28] = tested on: HOP-62
[29] = tested on: HCC 2998
[30] = tested on: UACC-257
[31] = tested on: SF-268
[32] = tested on: CAKI-1
[33] = tested on: PC-3
[34] = tested on: SR
[35] = tested on: RPMI-8226
[36] = tested on: RXF 393
[37] = tested on: HT-29
[38] = tested on: MCF7
[39] = tested on: LOX IMVI
[40] = tested on: ACHN
[41] = tested on: A549
[42] = tested on: SNB-75
[43] = tested on: OVCAR-3
[44] = tested on: DU-145
[45] = tested on: HCT-15
[46] = tested on: CCRF-CEM
[47] = tested on: HCT-116
[48] = tested on: A498
[49] = tested on: SK-MEL-2
[50] = tested on: SK-MEL-5
[51] = tested on: NCI-H23
[52] = tested on: MDA-N
[53] = tested on: MOLT-4
[54] = tested on: K562
[55] = tested on: OVCAR-5
[56] = tested on: SK-OV-3
[57] = tested on: NCI/ADR-RES
[58] = tested on: NCI-H226
[59] = tested on: 786-0

Measured: GI50

O=C(O)CN1CCN(CC(=O)O)CCN(CC(=O)O)CC1
inactive: [1] > 25.3 µM | [2] > 100 µM | [3] > 28.7 µM | [4] > 100 µM | [5] > 72.1 µM | [6] 59.2 µM | [7] > 100 µM | [8] 37.5 µM | [9] 4.07 µM | [10] > 100 µM | [11] 5.22 µM | [12] 4.85 µM | [13] 30.8 µM | [14] > 100 µM | [15] 7.98 µM | [16] > 31.9 µM | [17] > 48.8 µM | [18] 38.3 µM | [19] 3.49 µM | [20] 38.2 µM | [21] 16.4 µM | [22] 1.69 µM | [23] 8.47 µM | [24] 2.57 µM | [25] 83.8 µM | [26] 34.1 µM | [27] 5.81 µM | [28] > 100 µM | [29] 3.15 µM | [30] 58.7 µM | [31] 23.6 µM | [32] 8890 µM | [33] > 28.5 µM | [34] 3.27 µM | [35] 5.36 µM | [36] 5.64 µM | [37] 3.55 µM | [38] 5.65 µM | [39] > 24.1 µM | [40] > 100 µM | [41] 3.03 µM | [42] 12.6 µM | [43] > 94.6 µM | [44] > 100 µM | [46] 3.91 µM | [47] 3.7 µM | [48] > 33.6 µM | [49] > 43.3 µM | [50] 2.79 µM | [51] 28.6 µM | [52] 3.7 µM | [53] 4.71 µM | [54] 2.31 µM | [55] > 32 µM | [56] 8.38 µM
4.53 µM: [45]

O=c1[nH]c(=O)n([C@@H]2O[C@H](CO)[C@@H](O)[C@@H]2F)cc1I [FIALURIDINE]
inactive: [1] > 100 µM | [2] 39.2 µM | [3] > 100 µM | [4] > 100 µM | [5] > 100 µM | [6] > 100 µM | [7] > 100 µM | [8] > 100 µM | [9] > 100 µM | [10] > 100 µM | [11] > 100 µM | [12] > 100 µM | [13] > 100 µM | [14] > 100 µM | [15] > 100 µM | [16] > 100 µM | [17] > 100 µM | [18] 77.6 µM | [19] 24 µM | [20] > 100 µM | [21] > 100 µM | [22] > 100 µM | [23] > 100 µM | [24] > 100 µM | [25] > 100 µM | [26] > 100 µM | [27] > 100 µM | [28] > 100 µM | [29] > 100 µM | [30] > 100 µM | [31] > 100 µM | [32] > 100 µM | [36] 54.1 µM | [37] > 100 µM | [38] 67.6 µM | [39] 46.3 µM | [40] > 100 µM | [41] 44.2 µM | [42] > 100 µM | [43] > 100 µM | [57] > 100 µM | [44] > 100 µM | [46] 4.8 µM | [47] > 100 µM | [48] 59.4 µM | [50] > 100 µM | [51] > 100 µM | [52] > 100 µM | [53] 56 µM | [58] > 100 µM | [59] > 100 µM | [54] > 100 µM | [55] > 100 µM | [56] > 100 µM
> 100 µM: [45]
